Source: PMC6389909, “Isothermal Analysis of ThermoFluor Data can readily provide Quantitative Binding Affinities” (Scientific Reports, 2019)

Columns and labels:
MBP = details: read-out: Kd reported in previous studies; cited from earlier work
h-CA I [1] = target: T1, h-CA I (Homo sapiens, UniProt P00915); test: SYPRO Orange DSF, isothermal analysis, carbonic anhydrase h-CA I
Experimental: All proteins (MBP, h-CA I and b-CA II) were used at a final concentration of 2 µM for this assay. SYPRO Orange (Invitrogen S6651) was used at a final concentration of 20X for MBP, and at 10X for the carbonic anhydrases. […] Carbonic anhydrase experiments were carried out in 100 mM NaCl, 20 mM TRIS, 1% DMSO, pH 6.1.
All DSF experiments were carried out with Eppendorf Realplex2 Mastercycler. Each sample was divided to three 50 µL replicates. Sample solutions were dispensed into 96-well optical reaction plate (Thermo Fisher Scientific 4306737) and the plate was sealed with optical PCR plate sheet (Thermo Fisher Scientific AB-1170). Fluorescence intensity was measured via the JOE emission filter (550 nm) and “PTS clear plate” was set as the background for the calibration. […] Melting curves were directly exported from the instrument, and then were analyzed with Prism 6 (GraphPad Software Inc.).
DSF data were analyzed in three steps. First, raw fluorescence data as a function of temperature were fit to a modified form of the thermodynamic equation, as follows:22 ΔG=ΔH(1−T/Tm)−ΔCp(Tm−T+Tln[T/Tm]) 23 KU=e^−ΔG/RT 24 Y(T)=[1/1+KU(mFT+bF)]+[KU/1+KU(mUT+bU)]
Here Equation 24 relates the observed fluorescence signal, Y, as a function of temperature (T). The two terms in this equation correspond to contributions from folded and unfolded protein, respectively. […]

h-CA I [2] = target: T1, h-CA I; test: Esterase activity assay (4-nitrophenyl acetate), h-CA I; assay type: biochemical; set-up: purchased Sigma C4396; details: h-CA I 2 µM; 57 °C; noncompetitive inhibition fit; read-out: Ki (µM), from enzyme assay
Experimental: Carbonic anhydrase activity (h-CA I and b-CA II) was measured using a spectrophotometer (Molecular Devices, SpectraMax® i3x) as described elsewhere[73]. h-CA I was used at a final concentration of 2 µM and b-CA II was used at a final concentration of 0.5 µM in the buffer: 100 mM NaCl, 20 mM TRIS, pH 6.1, 1% DMSO. […] All reactions of h-CA I took place at 57 °C and reactions of b-CA II took place at 60 °C. […] Enzyme initial velocity was plotted with different substrate concentration using Prism6. Data were collected for each of the four inhibitors, and the change in initial velocities were analyzed with the “Enzyme-noncompetitive inhibition” equation in Prism6.

T1 sequence (P00915 whole entry): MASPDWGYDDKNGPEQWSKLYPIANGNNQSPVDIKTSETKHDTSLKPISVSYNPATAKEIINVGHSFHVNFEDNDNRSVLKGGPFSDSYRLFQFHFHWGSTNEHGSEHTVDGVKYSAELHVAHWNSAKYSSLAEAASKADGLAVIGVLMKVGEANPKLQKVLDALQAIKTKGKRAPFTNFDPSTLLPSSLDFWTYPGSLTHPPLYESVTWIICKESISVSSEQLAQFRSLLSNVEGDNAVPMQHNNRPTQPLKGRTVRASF

EC50 (h-CA I [1]) [µM] | Kd (h-CA I [1]; Kd (µM), from DSF, h-CA I, 57 °C, 2 µM protein, no denaturant) [µM] | Ki (h-CA I [2]) [µM] | Compound | Kd (MBP) [µM]
– | – | – | OC[C@H]1O[C@H](O[C@H]2[C@H](O)[C@@H](O)C(O)O[C@@H]2CO)[C@H](O)[C@@H](O)[C@@H]1O (mixture of isomers) [maltose] | 0.5 to 2
1.4 | < 0.5 | < 1 | NS(=O)(=O)C(F)(F)F [TFMSA, trifluoromethanesulfonamide] | –
